# Results as given in patent US20150225739A1 (priority 2014, published 2015).
# Where two headings read alike, the source gives them in different places.
# Experiments:
# WSSV = test: In vivo quinacrine assay and WSSV challenge experiment in shrimp; design: species or system Litopenaeus vannamei
# Experimental: (§1) For the WSSV challenge experiment, groups of shrimp (14 shrimp per group) were injected either with WSSV (50 μl of 100× dilution of the virus stock) or with PBS as a negative control. These first injections were then immediately followed by a second injection of 50 μl of either QC (5 μg/g) or PBS. Pleopods were excised from 3 randomly selected shrimp from each group at 0, 1, 2, 6 and 9 days post-injection (dpi) and tested for WSSV infection as described below. A second replicate of this entire experiment was performed at the same time. No pleopods were collected from the shrimp in this second replicate. Instead, mortality was observed and recorded every 12 h.
# A commercial WSSV diagnostic kit (IQ2000 WSSV Detection and Prevention System, GeneReach Biotechnology Corp.) was used to determine WSSV infection levels. Briefly, genomic DNA extracted from the shrimp pleopod samples was isolated using the DTAB/CTAB extraction procedure according to the manufacturer's instructions. Next, competitive nested PCR analysis was performed using the extracted DNA samples. The PCR products were analyzed by electrophoresis with a 2% agarose gel. WSSV infection levels were determined according to the pattern of bands indicated in the kit's instructions.
# [1] = In vivo quinacrine dosage determination in shrimp (mortality); design: species or system Litopenaeus vannamei; conditions: injected 0.5, 2.5 or 5 μg/g body weight, 20 shrimp per group, 2 weeks
# Experimental: To determine the optimal QC dosage for the challenge experiment, four groups of shrimp (20 shrimp per group) were injected with different doses ([…], 2.5 μg/g, or 5 μg/g body weight) of QC (10 mg/mL stock solution in PBS) or with PBS (negative control). The mortality of each group was observed and recorded every 12 h.
# as §1
# [2] = test system: Encephalomyocarditis Virus (EMCV) IRES; conditions: dose-dependent; cited from earlier work
# icp35 IRES [3] = conditions: Sf9 cells, 48 h, relative to untreated
# [4] = test system: hepatitis C virus (HCV) IRES; conditions: dose-dependent; cited from earlier work
# poliovirus IRES = conditions: dose-dependent; cited from earlier work
# cellular p53 IRES = conditions: cited from earlier work
# icp35 IRES [5] = test: IRES activity under tunicamycin-induced ER stress, dual luciferase assay in Sf9 cells; assay type: cell-based, White spot syndrome virus; conditions: tunicamycin 2.5 μg/ml added 24 h post-transfection, 15 h of treatment
# Experimental: After 15 h of treatment, cells were harvested. One replicate of the harvested cells was subjected to a dual luciferase assay as described above. The other replicate was subjected to Western blotting to monitor the level of the phosphorylated proteins. For this assay, 2× sample buffer was added to the cells and the mixture was boiled for 10 minutes. An aliquot (15 μl) was separated on 15% SDS-PAGE and transferred onto the PVDF membrane as described above. The blots were then blocked with 5% BSA in TBST (0.01% of Tween 20 in TBS buffer) for 1 h at RT, and probed with the commercial primary antibodies Phospho-eIF2α (Ser51) (Cell Signaling) or EIF2S1 (Abeam). The antibodies were diluted 1:1,000 in 2.5% non-fat milk in TBST and applied for 16 h at 4° C. This step was followed by washing three times for 10 min at RT with TBST. The blots were then probed with anti-Rabbit or anti-Mouse IgG secondary antibody (Santa Cruz Biotechnology) diluted 1:10,000 in 2.5% BSA in TBST for 1 hr at RT, and washed three times for 10 min at RT with TBST. Western Lightning® Plus-ECL reagents were used for visualization as described above.
Compound,"mortality rate after WSSV challenge (WSSV; QC 5 μg/g injected immediately after WSSV inoculum, vs WSSV+PBS)","shrimp still alive (WSSV; WSSV+QC group, QC 5 μg/g, 9 dpi)","WSSV infection level in surviving shrimp (IQ2000 nested competitive PCR) (WSSV; WSSV+QC sample collection group, 1, 2, 6 and 9 dpi)",survival of unchallenged shrimp [1],IRES activity [2],FL value (IRES-mediated firefly luciferase activity) (icp35 IRES [3]; QC 25 μM),FL/RL ratio (icp35 IRES [3]; QC 25 μM),FL value (IRES-mediated firefly luciferase activity) (icp35 IRES [3]; QC 30 μM),FL/RL ratio (icp35 IRES [3]; QC 30 μM),"RL value (cap-dependent Renilla luciferase activity) (icp35 IRES [3]; […], QC 25 μM or 30 μM)",IRES activity [4],IRES activity (poliovirus IRES),sensitivity of IRES to QC (cellular p53 IRES),cap-dependent translation (RL activity) (icp35 IRES [5]),icp35 IRES-dependent translation (FL activity) (icp35 IRES [5])
"CCN(CC)CCCC(C)Nc1c2ccc(Cl)cc2nc2ccc(OC)cc12 (stereo not drawn) [QC, quinacrine dihydrochioride]",significantly reduced,over 70%,tested negative or had only a light infection,All but one of the shrimp (in the 0.5 μg/g group) survived,inhibited,significantly reduced,significantly reduced,significantly reduced,significantly reduced,no significant effect,inhibited,inhibited,not sensitive,,
tunicamycin,,,,,,,,,,,,,,inhibited,inhibited
